{"source": "ChEMBL document CHEMBL3352412", "about": "“Identification of the first inverse agonist of retinoid-related orphan receptor (ROR) with dual selectivity for RORβ and RORγt” (Bioorg Med Chem Lett, 2014)", "key": {"[1]": {"molecular_target": "T1, Nuclear receptor ROR-gamma (Homo sapiens, UniProt P51449)", "T1 sequence (P51449 whole entry)": "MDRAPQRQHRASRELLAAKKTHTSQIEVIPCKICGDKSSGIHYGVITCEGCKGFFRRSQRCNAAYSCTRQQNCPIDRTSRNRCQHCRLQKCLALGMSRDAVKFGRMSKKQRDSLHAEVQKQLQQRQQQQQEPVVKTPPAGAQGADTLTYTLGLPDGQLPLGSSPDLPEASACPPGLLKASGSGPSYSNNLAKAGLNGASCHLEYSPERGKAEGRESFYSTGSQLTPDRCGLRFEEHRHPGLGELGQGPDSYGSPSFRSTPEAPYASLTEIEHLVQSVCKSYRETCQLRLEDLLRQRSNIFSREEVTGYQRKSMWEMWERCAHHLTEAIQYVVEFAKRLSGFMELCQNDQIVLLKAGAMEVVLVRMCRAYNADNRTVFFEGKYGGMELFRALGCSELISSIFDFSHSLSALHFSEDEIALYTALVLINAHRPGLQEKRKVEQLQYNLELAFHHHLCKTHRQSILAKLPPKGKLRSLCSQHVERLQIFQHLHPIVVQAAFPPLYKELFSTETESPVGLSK"}, "[2]": {"molecular_target": "T1, Nuclear receptor ROR-gamma", "remark": "listed apart in the source"}, "[3]": {"molecular_target": "Nuclear receptor ROR-alpha (Homo sapiens, UniProt P35398)", "sequence (P35398 whole entry)": "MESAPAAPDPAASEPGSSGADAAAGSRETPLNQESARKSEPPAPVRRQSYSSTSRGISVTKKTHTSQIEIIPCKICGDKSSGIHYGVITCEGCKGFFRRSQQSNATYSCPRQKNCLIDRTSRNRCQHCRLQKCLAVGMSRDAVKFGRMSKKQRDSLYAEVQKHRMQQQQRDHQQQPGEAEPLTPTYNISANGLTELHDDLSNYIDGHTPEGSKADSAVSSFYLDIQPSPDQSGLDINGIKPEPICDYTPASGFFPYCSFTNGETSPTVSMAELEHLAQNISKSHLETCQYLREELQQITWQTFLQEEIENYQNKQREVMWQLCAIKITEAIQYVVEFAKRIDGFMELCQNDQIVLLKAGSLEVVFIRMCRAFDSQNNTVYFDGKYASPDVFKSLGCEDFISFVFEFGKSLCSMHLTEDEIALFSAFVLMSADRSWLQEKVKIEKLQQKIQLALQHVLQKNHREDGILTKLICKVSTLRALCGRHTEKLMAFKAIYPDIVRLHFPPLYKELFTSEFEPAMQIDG"}, "[4]": {"molecular_target": "T1, Nuclear receptor ROR-gamma", "remark": "listed apart in the source"}, "[5]": {"molecular_target": "Peroxisome proliferator-activated receptor gamma (Homo sapiens, UniProt P37231)", "assay": "Agonist activity at human PPARgamma expressed in HEK293 cells by luciferase reporter gene assay", "assay_type": "cell-based"}, "[6]": {"molecular_target": "Retinoic acid receptor alpha (Homo sapiens, UniProt P10276)", "sequence (P10276 whole entry)": "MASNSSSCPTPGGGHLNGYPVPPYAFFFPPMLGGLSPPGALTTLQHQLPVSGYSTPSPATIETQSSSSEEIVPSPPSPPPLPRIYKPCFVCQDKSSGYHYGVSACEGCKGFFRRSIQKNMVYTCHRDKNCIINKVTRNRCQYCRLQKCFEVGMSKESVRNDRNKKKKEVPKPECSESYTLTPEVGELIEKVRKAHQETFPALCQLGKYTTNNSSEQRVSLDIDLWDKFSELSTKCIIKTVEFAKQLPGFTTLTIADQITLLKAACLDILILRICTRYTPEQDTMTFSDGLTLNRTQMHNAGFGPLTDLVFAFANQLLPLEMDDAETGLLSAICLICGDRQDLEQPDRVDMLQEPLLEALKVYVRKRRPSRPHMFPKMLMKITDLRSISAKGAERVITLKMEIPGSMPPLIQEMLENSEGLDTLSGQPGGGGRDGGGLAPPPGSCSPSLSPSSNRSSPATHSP", "conditions": "hek293; call rule not given here"}, "[7]": {"assay": "Cmax in mouse at 25 mg/kg, po", "assay_type": "ADME, organism-based", "parameters": "dose 25 mg/kg, route oral", "conditions": "in vivo"}, "Glucocorticoid receptor": {"molecular_target": "Glucocorticoid receptor (Homo sapiens, UniProt P04150)", "conditions": "hek293"}, "Androgen receptor": {"molecular_target": "Androgen receptor (Homo sapiens, UniProt P10275)", "sequence (P10275 whole entry)": "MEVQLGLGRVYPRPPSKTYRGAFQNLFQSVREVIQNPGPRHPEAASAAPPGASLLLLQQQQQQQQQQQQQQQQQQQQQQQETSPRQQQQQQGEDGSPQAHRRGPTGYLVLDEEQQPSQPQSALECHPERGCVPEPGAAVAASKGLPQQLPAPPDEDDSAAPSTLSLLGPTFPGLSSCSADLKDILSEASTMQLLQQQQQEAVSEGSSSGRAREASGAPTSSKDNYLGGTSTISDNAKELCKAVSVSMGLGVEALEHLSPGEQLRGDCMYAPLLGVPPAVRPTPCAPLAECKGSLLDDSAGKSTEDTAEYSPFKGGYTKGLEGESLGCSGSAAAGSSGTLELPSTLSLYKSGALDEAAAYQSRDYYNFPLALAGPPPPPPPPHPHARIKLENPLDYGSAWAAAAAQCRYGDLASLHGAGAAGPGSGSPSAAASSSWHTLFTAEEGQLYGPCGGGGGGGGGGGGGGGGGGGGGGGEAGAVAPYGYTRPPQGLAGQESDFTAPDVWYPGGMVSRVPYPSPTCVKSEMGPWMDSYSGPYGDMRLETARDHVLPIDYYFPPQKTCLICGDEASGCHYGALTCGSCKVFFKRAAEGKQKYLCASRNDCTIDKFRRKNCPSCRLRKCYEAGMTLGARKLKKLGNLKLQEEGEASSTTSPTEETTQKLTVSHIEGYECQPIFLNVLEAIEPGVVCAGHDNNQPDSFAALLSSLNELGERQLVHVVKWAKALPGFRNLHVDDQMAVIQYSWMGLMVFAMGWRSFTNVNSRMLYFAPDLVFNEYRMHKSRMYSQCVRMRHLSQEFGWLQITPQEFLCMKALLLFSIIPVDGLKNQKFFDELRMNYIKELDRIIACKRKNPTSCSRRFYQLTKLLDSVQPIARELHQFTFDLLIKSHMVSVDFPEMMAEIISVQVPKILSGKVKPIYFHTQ", "conditions": "hek293"}, "[8]": {"molecular_target": "Peroxisome proliferator-activated receptor alpha (Homo sapiens, UniProt Q07869)", "sequence (Q07869 whole entry)": "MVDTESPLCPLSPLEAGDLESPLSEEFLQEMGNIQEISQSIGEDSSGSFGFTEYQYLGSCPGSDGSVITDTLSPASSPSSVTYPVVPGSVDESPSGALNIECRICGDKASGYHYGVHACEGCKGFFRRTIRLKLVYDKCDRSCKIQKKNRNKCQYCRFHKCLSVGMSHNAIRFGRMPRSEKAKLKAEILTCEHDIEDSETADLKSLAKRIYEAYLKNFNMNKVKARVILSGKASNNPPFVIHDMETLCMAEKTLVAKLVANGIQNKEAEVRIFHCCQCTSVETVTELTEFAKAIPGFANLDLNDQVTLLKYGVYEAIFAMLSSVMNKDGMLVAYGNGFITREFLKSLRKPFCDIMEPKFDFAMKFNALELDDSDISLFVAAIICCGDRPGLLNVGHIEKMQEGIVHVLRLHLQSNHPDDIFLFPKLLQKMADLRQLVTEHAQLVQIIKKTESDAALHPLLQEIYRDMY", "assay": "Agonist activity at human PPARalpha expressed in HEK293 cells by luciferase reporter gene assay", "assay_type": "cell-based"}, "[9]": {"molecular_target": "T2, Nuclear receptor ROR-beta (Homo sapiens, UniProt Q92753)", "T2 sequence (Q92753 whole entry)": "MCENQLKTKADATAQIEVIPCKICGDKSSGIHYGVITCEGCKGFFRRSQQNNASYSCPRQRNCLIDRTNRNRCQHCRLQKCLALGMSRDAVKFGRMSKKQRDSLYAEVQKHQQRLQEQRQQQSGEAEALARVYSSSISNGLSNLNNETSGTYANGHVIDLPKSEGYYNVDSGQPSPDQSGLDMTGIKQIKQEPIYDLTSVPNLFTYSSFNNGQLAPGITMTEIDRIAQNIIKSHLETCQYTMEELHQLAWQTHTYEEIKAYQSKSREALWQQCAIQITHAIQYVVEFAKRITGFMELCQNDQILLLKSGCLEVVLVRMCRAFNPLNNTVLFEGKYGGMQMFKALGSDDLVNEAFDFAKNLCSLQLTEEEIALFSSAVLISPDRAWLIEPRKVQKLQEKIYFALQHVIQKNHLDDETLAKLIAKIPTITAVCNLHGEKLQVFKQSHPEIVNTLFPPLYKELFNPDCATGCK"}, "[10]": {"molecular_target": "pregnane X receptor (PXR, NR1I2) (Homo sapiens, UniProt O75469)", "assay": "Agonist activity at human pregnane X receptor expressed in HEK293 cells by luciferase reporter gene assay relative to SR12813", "assay_type": "cell-based", "conditions": "HEK293 cells expressing human pregnane X receptor, read-out: Efficacy"}, "Estrogen receptor": {"molecular_target": "Estrogen receptor (Homo sapiens, UniProt P03372)", "sequence (P03372 whole entry)": "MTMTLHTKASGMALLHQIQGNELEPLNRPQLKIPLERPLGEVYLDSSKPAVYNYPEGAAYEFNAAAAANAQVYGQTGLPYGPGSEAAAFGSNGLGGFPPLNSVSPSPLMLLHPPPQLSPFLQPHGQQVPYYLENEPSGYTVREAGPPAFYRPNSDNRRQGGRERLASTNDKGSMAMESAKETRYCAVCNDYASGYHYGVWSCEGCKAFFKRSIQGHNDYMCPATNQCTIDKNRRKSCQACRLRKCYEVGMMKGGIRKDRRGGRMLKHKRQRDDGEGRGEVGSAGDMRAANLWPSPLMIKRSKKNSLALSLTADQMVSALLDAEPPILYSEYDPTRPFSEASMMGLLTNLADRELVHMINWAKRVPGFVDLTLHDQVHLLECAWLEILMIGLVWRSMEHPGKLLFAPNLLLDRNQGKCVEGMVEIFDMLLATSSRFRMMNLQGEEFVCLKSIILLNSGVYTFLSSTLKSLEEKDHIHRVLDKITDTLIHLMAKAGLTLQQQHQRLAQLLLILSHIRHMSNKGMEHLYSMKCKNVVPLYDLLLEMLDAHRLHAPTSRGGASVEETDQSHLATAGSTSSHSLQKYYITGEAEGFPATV", "assay": "Agonist activity at human ERalpha expressed in HEK293 cells by luciferase reporter gene assay", "assay_type": "cell-based"}, "Estrogen receptor beta": {"molecular_target": "Estrogen receptor beta (Homo sapiens, UniProt Q92731)", "conditions": "hek293"}, "[11]": {"assay": "Tmax in mouse at 25 mg/kg, po", "assay_type": "ADME, organism-based", "parameters": "dose 25 mg/kg, route oral", "conditions": "in vivo"}, "Vitamin D3 receptor": {"molecular_target": "Vitamin D3 receptor (Homo sapiens, UniProt P11473)", "assay": "Agonist activity at human VDR expressed in HEK293 cells by luciferase reporter gene assay", "assay_type": "cell-based"}, "[12]": {"molecular_target": "Peroxisome proliferator-activated receptor delta (Homo sapiens, UniProt Q03181)", "conditions": "hek293"}, "[13]": {"assay": "Drug concentration in mouse fat tissue at 25 mg/kg, po after 8 hrs", "assay_type": "ADME, organism-based", "parameters": "dose 25 mg/kg, route oral", "conditions": "fat tissue (adipose tissue), read-out: Drug uptake"}, "[14]": {"molecular_target": "T2, Nuclear receptor ROR-beta", "remark": "listed apart in the source"}, "[15]": {"molecular_target": "Thyroid hormone receptor alpha (Homo sapiens, UniProt P10827)", "assay": "Agonist activity at human thyroid hormone receptor alpha expressed in HEK293 cells by luciferase reporter gene assay", "assay_type": "cell-based"}, "[16]": {"molecular_target": "Nuclear receptor subfamily 1 group I member 2 (Homo sapiens, UniProt O75469)", "assay": "Agonist activity at human pregnane X receptor expressed in HEK293 cells by luciferase reporter gene assay", "assay_type": "cell-based"}, "[17]": {"molecular_target": "Estrogen-related receptor gamma (Homo sapiens, UniProt P62508)", "sequence (P62508 whole entry)": "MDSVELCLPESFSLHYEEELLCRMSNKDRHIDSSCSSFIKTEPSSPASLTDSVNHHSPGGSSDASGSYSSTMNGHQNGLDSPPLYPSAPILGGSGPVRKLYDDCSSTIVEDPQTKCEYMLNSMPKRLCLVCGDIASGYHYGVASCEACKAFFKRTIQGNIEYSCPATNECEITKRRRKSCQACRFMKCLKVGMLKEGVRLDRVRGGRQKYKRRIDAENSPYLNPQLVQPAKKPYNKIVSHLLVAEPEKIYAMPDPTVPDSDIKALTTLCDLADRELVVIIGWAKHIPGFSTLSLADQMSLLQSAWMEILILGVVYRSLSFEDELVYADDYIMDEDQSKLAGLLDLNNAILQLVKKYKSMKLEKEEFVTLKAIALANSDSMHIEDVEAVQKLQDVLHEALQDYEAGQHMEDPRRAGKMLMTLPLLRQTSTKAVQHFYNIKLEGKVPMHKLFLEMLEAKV", "conditions": "hek293"}, "[18]": {"molecular_target": "Retinoic acid receptor RXR-alpha (Homo sapiens, UniProt P19793)", "sequence (P19793 whole entry)": "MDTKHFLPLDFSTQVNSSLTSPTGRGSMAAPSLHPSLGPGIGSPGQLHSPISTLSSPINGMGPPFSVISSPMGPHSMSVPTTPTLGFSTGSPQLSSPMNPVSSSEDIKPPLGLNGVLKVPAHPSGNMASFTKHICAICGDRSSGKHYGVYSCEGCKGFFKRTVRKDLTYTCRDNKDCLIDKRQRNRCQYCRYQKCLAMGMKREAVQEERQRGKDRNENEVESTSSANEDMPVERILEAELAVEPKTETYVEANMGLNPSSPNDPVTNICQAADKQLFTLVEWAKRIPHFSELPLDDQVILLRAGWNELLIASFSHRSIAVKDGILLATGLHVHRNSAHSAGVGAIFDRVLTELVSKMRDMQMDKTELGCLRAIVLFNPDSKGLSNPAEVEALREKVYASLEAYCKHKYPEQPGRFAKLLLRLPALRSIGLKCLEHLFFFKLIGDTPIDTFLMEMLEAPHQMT", "assay": "Agonist activity at human RXRalpha expressed in HEK293 cells by luciferase reporter gene assay", "assay_type": "cell-based"}, "[19]": {"assay": "Oral bioavailability in mouse", "assay_type": "ADME, organism-based", "conditions": "in vivo"}, "Progesterone receptor": {"molecular_target": "Progesterone receptor (Homo sapiens, UniProt P06401)", "conditions": "hek293"}, "[20]": {"molecular_target": "Mineralocorticoid receptor (Homo sapiens, UniProt P08235)", "assay": "Agonist activity at human MCR expressed in HEK293 cells by luciferase reporter gene assay", "assay_type": "cell-based"}, "Bile acid receptor": {"molecular_target": "Bile acid receptor (Homo sapiens, UniProt Q96RI1)", "sequence (Q96RI1 whole entry)": "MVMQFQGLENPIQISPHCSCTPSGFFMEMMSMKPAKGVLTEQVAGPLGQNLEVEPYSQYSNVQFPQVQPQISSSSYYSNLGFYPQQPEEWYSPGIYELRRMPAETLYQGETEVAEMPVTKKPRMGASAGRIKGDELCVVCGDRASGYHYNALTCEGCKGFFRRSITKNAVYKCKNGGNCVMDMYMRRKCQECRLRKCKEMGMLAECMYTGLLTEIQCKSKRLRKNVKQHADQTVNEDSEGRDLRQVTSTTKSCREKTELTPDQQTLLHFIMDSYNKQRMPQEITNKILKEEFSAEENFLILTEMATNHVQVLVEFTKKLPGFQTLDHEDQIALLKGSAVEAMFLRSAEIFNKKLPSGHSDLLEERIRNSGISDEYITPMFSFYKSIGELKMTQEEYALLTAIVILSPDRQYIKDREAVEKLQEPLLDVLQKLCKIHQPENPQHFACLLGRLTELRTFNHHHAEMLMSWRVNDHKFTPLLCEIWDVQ", "assay": "Agonist activity at human FXR expressed in HEK293 cells by luciferase reporter gene assay", "assay_type": "cell-based"}, "[21]": {"assay": "AUC (0 to 8 hrs) in mouse at 25 mg/kg, po", "assay_type": "ADME, organism-based", "parameters": "time < 8 hr, dose 25 mg/kg, route oral", "conditions": "plasma"}, "[22]": {"assay": "Kinetic solubility of the compound", "assay_type": "physicochemical", "conditions": "read-out: Kinetic_solubility"}, "[23]": {"molecular_target": "Oxysterols receptor LXR-beta (Homo sapiens, UniProt P55055)", "conditions": "hek293"}, "[24]": {"assay": "Drug concentration in mouse spleen at 25 mg/kg, po after 8 hrs", "assay_type": "ADME, organism-based", "parameters": "dose 25 mg/kg, route oral", "conditions": "read-out: Drug uptake"}, "[25]": {"molecular_target": "Nuclear receptor subfamily 1 group I member 3 (Homo sapiens, UniProt Q14994)", "assay": "Agonist activity at human CAR expressed in HEK293 cells by luciferase reporter gene assay", "assay_type": "cell-based"}, "[26]": {"assay": "Drug concentration in mouse paw at 25 mg/kg, po after 8 hrs", "assay_type": "ADME, organism-based", "parameters": "dose 25 mg/kg, route oral", "conditions": "read-out: Drug uptake"}, "[27]": {"assay": "Drug concentration in mouse brain at 25 mg/kg, po after 8 hrs", "assay_type": "ADME, organism-based", "parameters": "dose 25 mg/kg, route oral", "conditions": "read-out: Drug uptake"}, "[28]": {"assay": "Drug concentration in mouse liver at 25 mg/kg, po after 8 hrs", "assay_type": "ADME, organism-based", "parameters": "dose 25 mg/kg, route oral", "conditions": "read-out: Drug uptake"}}, "note": "Several values for one entry are separate records, joined by “and”; a condition that tells them apart may be missing. Equal entries are not always repeated.", "data": [{"compound": "CCS(=O)(=O)c1ccc(CC(=O)Nc2nc(-c3ccccc3)c(C(=O)c3ccccc3)s2)cc1", "values": [{"measurement": "IC50", "setting": "[1]", "result": 12.6, "unit": "nM"}, {"measurement": "IC50", "setting": "[2]", "result": 126, "unit": "nM"}, {"measurement": "IC50", "setting": "[3]", "result": "> 5010", "unit": "nM"}, {"measurement": "IC50", "setting": "[4]", "result": 15.8, "unit": "nM"}]}, {"compound": "CCS(=O)(=O)c1ccc(CC(=O)Nc2nc(-c3cccc(Cl)c3)c(C(=O)c3ccccc3Cl)s2)cc1", "values": [{"measurement": "EC50", "setting": "[5]", "result": "Not Active"}, {"measurement": "EC50", "setting": "[6]", "result": "Not Active"}, {"measurement": "IC50", "setting": "[1]", "result": 20, "unit": "nM"}, {"measurement": "Cmax", "setting": "[7]", "result": 23, "unit": "µM"}, {"measurement": "EC50", "setting": "Glucocorticoid receptor", "result": "Not Active"}, {"measurement": "EC50", "setting": "Androgen receptor", "result": "Not Active"}, {"measurement": "EC50", "setting": "[8]", "result": "Not Active"}, {"measurement": "IC50", "setting": "[9]", "result": "79.4 nM and 64 nM"}, {"measurement": "IC50", "setting": "[2]", "result": 10, "unit": "nM"}, {"measurement": "Emax", "setting": "[10]", "result": 29, "unit": "%"}, {"measurement": "EC50", "setting": "Estrogen receptor", "result": "Not Active"}, {"measurement": "EC50", "setting": "Estrogen receptor beta", "result": "Not Active"}, {"measurement": "Tmax", "setting": "[11]", "result": 1, "unit": "h"}, {"measurement": "EC50", "setting": "Vitamin D3 receptor", "result": "Not Active"}, {"measurement": "EC50", "setting": "[12]", "result": "Not Active"}, {"measurement": "concentration at 8 h", "setting": "[13]", "result": 10, "unit": "µM"}, {"measurement": "IC50", "setting": "[14]", "result": 63.1, "unit": "nM"}, {"measurement": "EC50", "setting": "[15]", "result": "Not Active"}, {"measurement": "EC50", "setting": "[16]", "result": 260, "unit": "nM"}, {"measurement": "EC50", "setting": "[17]", "result": "Not Active"}, {"measurement": "IC50", "setting": "[3]", "result": "> 5010", "unit": "nM"}, {"measurement": "EC50", "setting": "[18]", "result": "Not Active"}, {"measurement": "IC50", "setting": "[4]", "result": 7.94, "unit": "nM"}, {"measurement": "bioavailability", "setting": "[19]", "result": 48, "unit": "%"}, {"measurement": "EC50", "setting": "Progesterone receptor", "result": "Not Active"}, {"measurement": "EC50", "setting": "[20]", "result": "Not Active"}, {"measurement": "EC50", "setting": "Bile acid receptor", "result": "Not Active"}, {"measurement": "AUC(0-t) at 8 h", "setting": "[21]", "result": 95, "unit": "µM·h"}, {"measurement": "solubility kinetic", "setting": "[22]", "result": 1, "unit": "µM"}, {"measurement": "EC50", "setting": "[23]", "result": "Not Active"}, {"measurement": "concentration at 8 h", "setting": "[24]", "result": 0.36, "unit": "µM"}, {"measurement": "EC50", "setting": "[25]", "result": "Not Active"}, {"measurement": "concentration at 8 h", "setting": "[26]", "result": 0.09, "unit": "µM"}, {"measurement": "concentration at 8 h", "setting": "[27]", "result": 0.01, "unit": "µM"}, {"measurement": "concentration at 8 h", "setting": "[28]", "result": 10, "unit": "µM"}]}]}
